Values joined by “and” are separate entries in the source; they are usually repeats but may differ in a detail not shown here. Equal values may be shown once. “Also recorded” adds a separate entry of the source. Read-outs that look alike come from different tables or passages of the source.
Legend:
[1] = tested on: Wnt/β-catenin transcription; assay: Wnt/β-catenin transcription TOPFlash reporter assay; assay type: cell-based; details: Wnt TopFlash IC50 over TMEM16A eYFP IC50
[2] = tested on: Wnt/β-catenin transcription; details: ref Mook et al. (2015); read-out: Mook et al. Wnt/β-catenin TopFlash (IC50); cited from earlier work
hTMEM16A (abc) = target: T1, hTMEM16A (abc) (Homo sapiens, UniProt Q5XXA6, DEL476-501); assay: medchem TMEM16A halide-sensitive YFP assay, 22-point dose-response; assay type: cell-based; parameters: expressed in transfected cells; details: iodide as permeant anion
T1 sequence (Q5XXA6 with tags, fused parts or gaps isoform Q5XXA6-5 DEL539-564): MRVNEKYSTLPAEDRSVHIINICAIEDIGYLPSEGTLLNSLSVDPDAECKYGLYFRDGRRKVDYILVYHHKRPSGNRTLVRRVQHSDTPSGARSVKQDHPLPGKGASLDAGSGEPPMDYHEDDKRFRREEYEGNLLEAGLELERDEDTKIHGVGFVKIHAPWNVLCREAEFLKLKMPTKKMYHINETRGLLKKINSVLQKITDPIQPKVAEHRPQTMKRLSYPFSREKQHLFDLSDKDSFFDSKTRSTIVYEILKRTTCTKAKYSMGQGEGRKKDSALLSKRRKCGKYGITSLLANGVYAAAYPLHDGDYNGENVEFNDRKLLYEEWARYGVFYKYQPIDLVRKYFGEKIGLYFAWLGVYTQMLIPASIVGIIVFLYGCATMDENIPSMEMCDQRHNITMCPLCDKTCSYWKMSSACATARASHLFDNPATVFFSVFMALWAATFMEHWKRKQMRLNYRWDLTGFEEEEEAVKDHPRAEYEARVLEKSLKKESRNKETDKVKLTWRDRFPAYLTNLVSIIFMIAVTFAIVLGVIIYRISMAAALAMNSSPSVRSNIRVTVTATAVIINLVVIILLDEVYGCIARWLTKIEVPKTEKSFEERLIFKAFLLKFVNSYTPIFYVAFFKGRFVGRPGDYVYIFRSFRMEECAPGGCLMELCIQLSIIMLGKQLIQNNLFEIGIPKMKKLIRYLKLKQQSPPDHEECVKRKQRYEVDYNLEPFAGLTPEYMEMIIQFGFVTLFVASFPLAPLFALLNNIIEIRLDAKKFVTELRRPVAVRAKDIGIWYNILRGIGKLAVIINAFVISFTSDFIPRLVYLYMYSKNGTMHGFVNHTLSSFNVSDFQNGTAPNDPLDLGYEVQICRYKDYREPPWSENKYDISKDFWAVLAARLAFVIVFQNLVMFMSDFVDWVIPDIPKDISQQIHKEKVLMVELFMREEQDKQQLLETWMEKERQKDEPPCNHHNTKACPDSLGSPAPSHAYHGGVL
Experimental: The TMEM16A HEK293T eYFP (H149Q, I153L) stable cell line for medchem support was generated by transfecting 10 μg of linearized hTMEM16A(abc) DNA constructs into HEK293T eYFP (H149Q,I153L) stable cells. The transfected cells were cultured under 200 μg/ml of hygromycin B selection for 20 days and the stable pool was single cell seeded in 96 well plate and duplicated plate were made after single cell clones were formed. YFP function assay were performed on duplicated plate and clones producing higher changes in fluorescence from the YFP assay were chosen for further expansion to form a stable cell line.
Plates were incubated for 24 h at 37°C with 5% CO2. On the assay day, medium was removed and replaced with 20 μl/well of assay buffer (Hank’s Balanced Salt Solution with 10 mM HEPES pH 7.4), 10 μl/well of 40x diluted compounds was added to assay plate and it was incubated at room temperature for 30 min, after which baseline fluorescence was read in the FLIPR instrument for 10 s. Then, 5 μl/well of a 3x trigger solution (24 mM iodide, 3 μM ionomycin in assay buffer) was added and the fluorescence kinetic trace was recorded for 2 min.

mouse tracheal rings [3] = assay: Wire myograph bronchodilation of carbachol pre-contracted mouse tracheal rings
Experimental: The trachea from C57 BL/6 mice was dissected and collected in PBS with Mg^2+ and Ca^2+. After further trimming, two 2 mm sections (rings) per trachea were then placed in DMEM media containing PSG/HEPES/AA/NaPyr for 1 h and used immediately or maintained overnight at 37°C in a humidified incubator with 5% CO2. Rings were then mounted into chambers of DMT wire myograph containing L-shaped mounting pins with 2–3 mN of force applied to secure rings on the pins and the rings were allowed to equilibrate for 25–30 min in a physiological saline buffer (PSS, 130 mM NaCl, 4.7 mM KCl, 1.2 mM MgS04, 14.9 mM NaHCO3, 1.2 mM KH2PO4, 0.026 mM EDTA, 1.6 mM CaCl2, 5.5 mM Dextrose). Throughout the experiment, rings were maintained at physiological temperature and gas conditions by heating buffer reservoir and chamber to 37°C and bubbling a 95% O2, 5% CO2 gas mixture into chamber.
After equilibration, a standard tissue “Wake-Up” procedure was applied by altering tension and then treatment with elevated potassium as follows: 3 mN tension was applied for 5–10 min, then another 2–3 mN tension to total of 5.5 mN and then to 7–8 mN for another 5 min; the tissue pre-tension was then set to 5 mN and allowed to equilibrate for 5–10 min followed by the removal of the PSS buffer and addition of KPSS (60 mM KCl, 74.7 mM NaCl in PSS solution), with force changes monitored until they reached a plateau. The tissue was then washed four times with PSS over 5 min and the KPSS treatment and washes repeated; the tissue was then allowed to sit in PSS for 10 min and the tension was set to 5 mN.
The tissue was then washed three times and then three times more with PSS for 5 min until tension returned to baseline.
Only tissue that passed the qualification tests above advanced to studies on test article compounds. […] For standard ascending dose-response studies on TMEM16A antagonists, an EC75 or EC95 concentration of CCh was used to pre-contract tracheal rings.

human bronchial rings = assay: Wire myograph bronchodilation of histamine pre-contracted human bronchial rings (Biopta)
From the text: Details of bronchodilator studies shown in Figure 5H, 6 and Supplementary Figure 40 are provided below as part of the end assay report on Study CUR011 by Lee Christie (Biopta). Donors with any of the following conditions were excluded from the study: asthma, COPD, emphysema, lung cancer, cystic fibrosis, pulmonary fibrosis, pulmonary hypertension, pneumonia. Donors were also excluded if they had smoked in the past 12 months. Non-transplantable lung tissue was acquired from organ donors post mortem. Any macroscopically diseased/necrotic tissue was rejected. […] Human airway rings were set up under isometric conditions on a wire myograph in order to examine the influence of the test articles on bronchodilation. In order to assess tissue viability, the airways were challenged with carbachol (10 μM) and then isoprenaline (10 μM) to assess their constriction and relaxation responses, respectively. […] Viable airways were pre-constricted with histamine (10 μM), then exposed to one of the following cumulative concentration response curves (CCRCs): positive control, vehicle (water, volume matched to positive control), test article, vehicle (DMSO concentration matched to test articles). At the end of each CCRC, theophylline (2.2 mM) was added to induce maximal relaxation of the tissue. […] Airways were re-tensioned to 1.0 – 1.5 g if the tension had dropped below 1.0 g during the first 30 min of equilibration. (b) Airways were exposed to carbachol (bath concentration 10 μM) in order to measure their contractile responses and then isoprenaline (10 μM) in order to assess their relaxation. Airways were washed out and allowed to return to baseline. (c) Airways were pre-constricted with histamine (10 μM) before conducting a CCRC to the test article, the positive control (isoprenaline), test article vehicle or positive control vehicle.

mouse tracheal rings [4] = assay: Bronchodilation of mouse tracheal rings at differing levels of carbachol pre-contraction; details: for relaxation of airway rings: normalized to theophylline
Experimental: Standard procedures as listed above were used to prepare, mount and Wake-Up tracheal rings and the concentrations of carbachol providing EC25, EC50, EC75, or EC95 levels of contraction for each ring was determined as described above.

mouse tracheal rings [5] = assay: Bronchodilation of cytokine-treated mouse tracheal rings; details: overnight IL-1β, TNFα, IL-13 100 ng/ml, EC75 carbachol
Experimental: Airway rings were treated overnight in 2 ml DMEM + PSG/HEPES/AA/NaPyr buffer alone or with the same solution supplemented with 100 ng/ml of mTNFα, mIL-13 and mIL-1β. Unlike like the typical Wake-Up protocol and ring qualifying tests, mouse tracheal rings were not exposed to KPSS and rings were not observed to relax with a β-agonist following discovery of CCh dose-responses. After several washes with PSS, EC75 concentrations of CCh were used to pre-contract rings for >30 min alone or in the presence of cytokines.

mouse tracheal rings [6] = assay: β-agonist use-dependent desensitization of mouse tracheal rings; details: round 2
From the text: Standard procedures were used to prepare and mount tissues.

mouse airway rings = assay: Duration of bronchodilation after washout and carbachol re-challenge, mouse airway rings; details: EC75 carbachol, preliminary
Experimental: Mouse airway rings were exposed to a typical Wake-Up procedure including the use of KPSS and discovery of EC75 CCh dose responses. However, no isoproterenol was used to observe tissue relaxation as part of the qualification procedure. With pre-contraction with EC75 CCh for >30 min, rings were subjected to a compound dose-response, followed by a complete washout of compound, and re-contracted with EC75 CCh. Traces were recorded for several hours thereafter and normalized to theophylline as control of 100% relaxation.

[7] = supplement, maximum concentration 55.6, read-out: TMEM16A eYFP Assay IC50

Compound	IC50 Ratio, Wnt/TMEM16A [1]	IC50 (hTMEM16A (abc); [7]) [nM]	IC50 [2] [nM]	also measured
O=C(Nc1cccc(C(F)(F)F)c1)c1cc(Cl)ccc1O [Cpd 9]	6.85	130	890	–
O=C(Nc1ccc(Cl)c(Cl)c1)c1cc(Cl)ccc1O [Cpd 14]	8.11	–	730	IC50 (hTMEM16A (abc); TMEM16A eYFP Assay IC50, supplement, maximum concentration 55.6): 90 nM
O=C(Nc1ccc(F)cc1)c1cc(Cl)ccc1O [Cpd 16]	15.36	250	3840	–
CC(C)NCC(O)c1ccc(O)c(O)c1 (stereo not drawn) [Isoproterenol, isoproterenol]	–	–	–	time to relax mouse tracheal rings (mouse tracheal rings [3]; EC75 carbachol, 10 nM dose (Supplementary Figure 39)): 2 – 4 min and 2 − 4 min; EC50 (mouse tracheal rings [3]; EC75 carbachol, Exp 1-3, read-out: EC50 relaxation of mouse tracheal rings, individual experiments): 5.9 nM and 7.7 nM; EC50 (mouse tracheal rings [3]; Mus musculus, EC75 carbachol, Exp 1-3, read-out: EC50 relaxation of mouse tracheal rings, individual experiments): 8.1 nM; EC50 (mouse tracheal rings [3]; Mus musculus, pre-contracted with EC75 carbachol, average, read-out: EC50 relaxation of mouse tracheal rings): 7.1 nM; EC50 (human bronchial rings; Homo sapiens, 10 μM histamine, read-out: EC50 bronchodilating histamine precontracted human airways): 30 nM; time to steady-state relaxation of human bronchial rings (human bronchial rings; histamine pre-contracted, 10 or 100 nM): less than 7 min; time to open airways (human bronchial rings; summary): < 7 min; relaxation of airway rings (mouse tracheal rings [4]; EC25 level of carbachol): 100%; bronchodilation of a single maximally contracted ring (mouse tracheal rings [4]; EC95 carbachol, highest dose (1 μM)): 38% and 37.7%; relaxation of airway rings (mouse tracheal rings [4]; EC95 level of carbachol): 42%; bronchodilation of cytokine-treated airways (mouse tracheal rings [5]): dramatically reduced; % relaxation after second treatment and highest dose (mouse tracheal rings [6]; EC50 carbachol): 78.6%; % relaxation after second treatment and highest dose (mouse tracheal rings [6]; EC75 carbachol): 42.7%; duration of bronchodilation after washout and re-challenge (mouse airway rings): short-acting; also recorded: quickly lost

The next lines start with results.

IC50 Ratio, Wnt/TMEM16A [1]	IC50 (hTMEM16A (abc); [7]) [nM]	Compound	IC50 [2] [nM]	also measured
18.33	90	O=C(Nc1cccc(Cl)c1)c1cc(Cl)ccc1O [Cpd 10]	1650	–
9.24	330	O=C(Nc1ccccc1Cl)c1cc(Cl)ccc1O [Cpd 11]	3050	–
4.67	90	O=C(Nc1ccc(Cl)cc1Cl)c1cc(Cl)ccc1O [Cpd 12]	420	IC50 (hTMEM16A (abc); average, 22-point dose-response, read-out: TMEM16A eYFP Assay (IC50)): 88 nM
3.50	200	O=C(Nc1cc(Cl)cc(Cl)c1)c1cc(Cl)ccc1O [Cpd 13]	700	–
12.97	310	O=C(Nc1ccc(F)cc1F)c1cc(Cl)ccc1O [Cpd 17]	4020	–

— paper PMC6382696, “Drug Repurposing: The Anthelmintics Niclosamide and Nitazoxanide Are Potent TMEM16A Antagonists That Fully Bronchodilate Airways” (Frontiers in Pharmacology, 2019)
